Assay results taken from US10052304B2, “Compositions and methods for cancer therapy” (UNIVERSITY OF IOWA RESEARCH FOUNDATION, priority 2015, dated 2018).
“Also recorded” adds a separate entry of the source.

What was measured:
U87 xenografts = assay: GBM (U87) flank xenograft model; format: in vivo, mice
Description: Female 4-6 week old female athymic-nu/nu mice were purchased from Envigo (previously Harlan Laboratories) and housed in the Animal Care Facility at the University of Iowa (Iowa City, Iowa), and all procedures were approved by the University of Iowa Institutional Animal Care and Use Committee and conformed to NIH guidelines. 1×10^6 H292 or U87 cells were injected subcutaneously into the right rear flank and mice were euthanized and sacrificed when tumor length exceeded 1.5 cm in any dimension.
1×10^6 H292 or U87 cells were injected subcutaneously into the right rear flank. […] Tumors were measured every other day with Vernier calipers (volume=(length×width×(width/2)) and mice were euthanized and sacrificed when tumor length exceeded 1.5 cm in any dimension.

NCI-H292 cells = assay: Clonogenic survival assay, NCI-H292 NSCLC cells; format: cell-based, human
Description: (§1) Treatment conditions for individual experiments are as described in the figure legends and summarized in the Supplemental Experimental Procedures.
(§2) 1-2×10^5 cells were plated in 60 mm cell culture dishes and grown in their respective media for 48 h before exposed to experimental conditions. […] For AdGPx1 experiments, cells were supplemented with 50 nM sodium selenite following transduction and throughout clonogenic growth. […] After treatment, cells were washed with PBS and clonogenic assay was completed in their respective media. Briefly, floating and attached cells were collected and total cells per plate were counted. An experimentally derived number of cells were plated into each well of a 6-well cell culture plate in their respective media. For HEL92.1.7 suspension cells, cells were seeded in a top layer of 0.4% (w/v) agarose to allow for quantifiable colony formation. […] Normalized survival fractions were calculated by comparing plating efficiencies of each treatment group against the control group within a given experiment.

U87 cells = assay: Clonogenic survival assay, U87 GBM cells; format: cell-based, human
Description: as §1, §2

ARP1 = assay: Colony formation on soft agar, ARP1 myeloma cells; format: cell-based, human; settings: 1 h treatment, colonies after 10-14 days
Excerpt: A two-layer agar system was used, and colonies were visualized after 10-14 days.

ETC complex I = ETC complex I activity after ascorbate exposure; format: cell-based, human; settings: 15 pmol cell^−1 ascorbate for 1 h, NSCLC cell lysates
Description: Exponentially growing cells were scraped and frozen as dry pellets until assayed for total activity. Aconitase activity was measured as the rate of appearance of NADPH (at 340 nm; Beckman DU 800 spectrophotometer, Brea, Calif.) for 45 min during the reaction of 200 μg total sample protein with 200 μM NADP^+ and 10 U isocitrate dehydrogenase as previously described (Case et al., 2011). Maximal ETC complex activity was measured as previously described (Birch-Machin et al., 1994). Complex I activity was quantified as the rate of rotenone-inhibitable NADH oxidation (320 nm; c=6.22 mM^−1 cm^−1). Complex II activity as the difference in the rate of DCIP reduction in the presence and absence of succinate (at 600 nm; ε=19.1 mM^−1 cm^−1). Complex IV activity was assayed as the rate of oxidation of cytochrome c ([…]; ε=19.6 mM^−1 cm^−1). Rates of activities were normalized to total protein by Lowry.
Exponentially growing cells were scraped and frozen as dry pellets until assayed for protein content (Lowry) and maximal ETC complex activity as previously described (Birch-Machin et al., 1994). Briefly, dry cell pellets were resuspended in 20 mM potassium phosphate buffer and sonicated 3×10 s each. Rates of activities were normalized to total protein. Complex I activity was quantified as the rate of rotenone-inhibitable NADH oxidation (320 nm; ε=6.22 mM-1 cm-1). […]

HBEpCs = assay: Intracellular H2O2 with PeroxyOrange-1, HBEpCs; format: cell-based, human; settings: ascorbate 15 pmol cell^−1
Description: To visualize intracellular H2O2 levels, the selectively sensitive fluorescent probe PeroxyOrange-1 was utilized as previously described with modifications (Dickinson et al., 2010). 1×10^5 cells were plated and grown in their respective media for 48 h. The complete protocol was conducted in the dark with minimal ambient lighting. Cells were washed with PBS and incubated with 10 uM PO-1 in phenol red free RPMI supplemented with HBE growth supplements for 1 h at 37° C. Cells were then washed in PBS and placed back in phenol red free RPMI supplemented with HBE growth supplements. […] At times indicated, cells were placed on ice for the remainder of the protocol, washed, and trypsinized with phenol red free 0.5% trypsin. After 15 min, cells still attached were scraped and all cells were collected in 15 mL conical vials containing PBS+10% FBS to neutralize the trypsin reaction. Cells were spun at 1200 rpm for 5 min at 4° C., resuspended in 300-500 uL PBS and were run on a LSR II Flow Cytometer (BD Biosciences) with λex=561 nm, λem=585/20 nm. The mean fluorescence intensity (MFI) was analyzed (FlowJo™) and corrected for autoflourescence against unlabeled cells. Normalized MFI was calculated by comparing MFI for a given treatment group against control.

HBEpC = settings: 1 h ascorbate + 5 μM carboplatin + 2 Gy IR
Description: After treatment, cells were washed with PBS and clonogenic assay was completed in their respective media as previously described (Fath et al., 2011). Treatment conditions for individual experiments are as described in the figure legends and summarized in the Supplemental Experimental Procedures.
as §2, with “formation. After sufficient time (7-12 days, cell type-dependent), cells were fixed in 70% ethanol and stained with a Brilliant Blue methanol solution.” for “formation.”

[1] = IV delivery; cited from earlier work
[2] = tested on: stage IV pancreas cancer patients; settings: cited from earlier work

In the case of `O=C1O[C@H]([C@@H](O)CO)C(O)=C1O` [ascorbate, L-ascorbic acid], the “tolerability (mouse weight)” value (U87 xenografts; ascorbate 4 g kg^−1 IP daily) is reported as “well tolerated”, the overall survival (U87 xenografts; ascorbate 4 g kg^−1 IP daily + 12 Gy IR/2 fractions + weekly 2.5 mg kg^−1 TMZ) is reported as “significantly increased overall survival” and the “sensitization to carboplatin + IR (clonogenic survival)” value (NCI-H292 cells; 1 h ascorbate + 5 μM carboplatin + 2 Gy IR vs Carbo+IR alone) is reported as “significantly increased sensitivity to Carbo+IR; also recorded: selectively sensitized”. For the same compound, the “clonogenic survival / cell killing” value (NCI-H292 cells; ascorbate alone, 1 h exposure) was “more clonogenic cell killing in NSCLC cell lines than chemotherapy plus radiation; also recorded: dose-dependent clonogenic cell killing”, the “sensitization to temozolomide + IR (clonogenic survival)” value (U87 cells; 1 h ascorbate + 25 μM temozolomide + 2 Gy IR) was “selectively sensitized” and the “clonogenic survival / cell killing” value (U87 cells; ascorbate alone, increasing concentrations, 1 h) was “dose-dependent clonogenic cell killing”. For the same compound, the “ascorbate dose giving complete growth inhibition (colony formation)” value (ARP1) was no less than 10 pmol/cell, the “ETC complex I activity” value (ETC complex I) was “inactivation” and the “steady-state levels of H2O2 (PeroxyOrange-1)” value (HBEpCs) was “unchanged”. For the same compound, the “sensitization to carboplatin + IR (clonogenic survival)” value (HBEpC) was “not”, the “serum ascorbate concentration achieved (effective therapeutic level)” value [1] was “≈ 20 mM” and the “side effects attributed to the combination” value ([2]; ascorbate + gemcitabine) was “rare and included diarrhea and dry mouth”. The average survival ([2]; pharmacological ascorbate + gemcitabine, stage IV pancreas cancer) was 14 months.
